This is an account of results in patent US12398132B2, “Derivatives of 4-(imidazo[1,2-a]pyridin-3-yl)-n-(pyridinyl)pyrimidin-2-amine as therapeutic agents” (AUCENTRA THERAPEUTICS PTY LTD, priority 2019, dated 2025).

Structures are written as SMILES. Substitutions are numbered along the chain they refer to.

The target in assay [1] is CDK4/D1 (Homo sapiens, UniProt P11802). As to the kind of experiment: ADP Glo kinase assay, CDK4/D1. The following applies: CDK4D1. Type of assay: biochemical. (ADP-Glo first removes unused ATP, then detects ADP through luciferase.)
Chain of CDK4/D1 (P11802 whole entry, species assumed): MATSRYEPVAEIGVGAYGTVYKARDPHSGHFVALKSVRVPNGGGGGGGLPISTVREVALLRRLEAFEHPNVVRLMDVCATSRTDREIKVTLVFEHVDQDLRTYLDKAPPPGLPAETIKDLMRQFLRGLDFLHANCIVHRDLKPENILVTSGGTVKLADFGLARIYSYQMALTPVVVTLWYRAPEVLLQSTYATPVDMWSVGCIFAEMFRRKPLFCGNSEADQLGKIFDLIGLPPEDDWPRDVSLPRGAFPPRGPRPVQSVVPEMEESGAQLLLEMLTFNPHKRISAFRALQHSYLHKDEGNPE
Chain of CDK4/D1 (P24385 whole entry partner, species assumed): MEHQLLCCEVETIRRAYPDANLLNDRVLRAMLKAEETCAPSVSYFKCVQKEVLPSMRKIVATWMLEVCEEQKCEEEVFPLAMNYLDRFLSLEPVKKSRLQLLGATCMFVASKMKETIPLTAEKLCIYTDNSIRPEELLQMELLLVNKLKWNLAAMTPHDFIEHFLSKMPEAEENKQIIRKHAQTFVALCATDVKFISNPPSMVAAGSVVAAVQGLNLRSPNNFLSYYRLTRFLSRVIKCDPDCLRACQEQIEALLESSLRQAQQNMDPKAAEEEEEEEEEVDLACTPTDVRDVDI
Assay [2] has as its target CDK6/D3 (Homo sapiens, UniProt Q00534). The experiment in a line: ADP Glo kinase assay, CDK6/D3. Type of assay: biochemical. The following applies: CDK6D3.
Procedure: Inhibition of FLT3(WT), FLT3(ITD) and FLT3(D835Y) and CDKs were determined using ADP Glo Kinase assays (Promega Corporation, Madison, WI, USA). […] Similarly, kinase reaction for CDK4/D1 and CDK6/D3 was performed with reaction buffer (40 nM Tris base pH 7.5, 20 mM MgCl2, 0.4 mM DTT), 0.1 mg/ml BSA and RB-CTF substrate (retinoblastoma protein1 C-terminal fraction). For CDK9/CyclinT1, the kinase reaction was performed with the standard assay buffer and Kinase Dilution Buffer and RBER-IRStide substrate. Half-maximal inhibition (IC50) values were calculated using a 4-parameter logistic non-linear regression model with Graphpad prism (Version 6.0). Apparent inhibition constants (Ki) values were calculated from Km (ATP) and IC50 values for the respective kinases.
Assay [3] addresses CDK9/CyclinT1 (Homo sapiens, UniProt P50750). The experiment in a line: ADP Glo kinase assay, CDK9/CyclinT1. Type of assay: biochemical. The following applies: CDK9T1; apparent Ki calculated from Km (ATP) and IC50; read-out: CDK inhibition Ki.
Assay [4] has as its target T1, FLT3(WT) (Homo sapiens, UniProt P36888).
T1 sequence (P36888 27-993): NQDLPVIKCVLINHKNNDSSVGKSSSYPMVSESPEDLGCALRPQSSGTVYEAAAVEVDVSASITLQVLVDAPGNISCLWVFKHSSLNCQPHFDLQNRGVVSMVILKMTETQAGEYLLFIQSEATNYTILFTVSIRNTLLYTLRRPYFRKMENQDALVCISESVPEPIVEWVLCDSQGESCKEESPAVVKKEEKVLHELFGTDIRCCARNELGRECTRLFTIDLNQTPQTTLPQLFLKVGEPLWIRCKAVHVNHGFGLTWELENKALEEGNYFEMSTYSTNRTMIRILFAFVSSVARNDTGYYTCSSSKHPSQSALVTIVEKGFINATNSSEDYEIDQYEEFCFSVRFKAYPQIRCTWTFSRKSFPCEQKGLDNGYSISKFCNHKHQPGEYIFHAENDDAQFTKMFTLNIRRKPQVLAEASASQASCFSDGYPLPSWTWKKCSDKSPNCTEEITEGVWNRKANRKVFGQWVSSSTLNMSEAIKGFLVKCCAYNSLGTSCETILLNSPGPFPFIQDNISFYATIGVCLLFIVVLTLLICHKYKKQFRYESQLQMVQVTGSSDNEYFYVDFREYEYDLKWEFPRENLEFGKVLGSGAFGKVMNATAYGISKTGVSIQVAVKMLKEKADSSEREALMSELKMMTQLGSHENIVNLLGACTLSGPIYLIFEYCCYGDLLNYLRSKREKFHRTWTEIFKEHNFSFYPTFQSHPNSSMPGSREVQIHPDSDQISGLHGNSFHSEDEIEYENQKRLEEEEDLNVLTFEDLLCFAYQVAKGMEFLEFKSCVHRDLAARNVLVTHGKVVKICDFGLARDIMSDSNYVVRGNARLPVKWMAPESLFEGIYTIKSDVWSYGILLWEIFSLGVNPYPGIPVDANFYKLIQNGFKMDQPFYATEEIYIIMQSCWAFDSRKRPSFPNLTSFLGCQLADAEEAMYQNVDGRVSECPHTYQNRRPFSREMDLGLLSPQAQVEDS
As to the kind of experiment: ADP Glo kinase assay, FLT3(WT). Type of assay: biochemical. The following applies: compound at 1 μM, read-out: residual enzymatic activity (%) at 1 μM.
Procedure: Inhibition of FLT3(WT), FLT3(ITD) and FLT3(D835Y) and CDKs were determined using ADP Glo Kinase assays (Promega Corporation, Madison, WI, USA). […] The kinase reactions are run for an optimised time period (FLT3-WT: 120 min, FLT3-ITD: 80 min, FLT3-D835Y: 100 min) at room temperature and then the reaction was stopped by adding 5 μL of ADP Glo reagent. […] Positive and negative controls were performed in 0.5% DMSO in the presence and absence of each FLT3 kinase, respectively. […] Half-maximal inhibition (IC50) values were calculated using a 4-parameter logistic non-linear regression model with Graphpad prism (Version 6.0). Apparent inhibition constants (Ki) values were calculated from Km (ATP) and IC50 values for the respective kinases.

Assay [5] deals with T2, FLT3(ITD) (Homo sapiens, UniProt P36888).
T2 sequence (P36888 1-993): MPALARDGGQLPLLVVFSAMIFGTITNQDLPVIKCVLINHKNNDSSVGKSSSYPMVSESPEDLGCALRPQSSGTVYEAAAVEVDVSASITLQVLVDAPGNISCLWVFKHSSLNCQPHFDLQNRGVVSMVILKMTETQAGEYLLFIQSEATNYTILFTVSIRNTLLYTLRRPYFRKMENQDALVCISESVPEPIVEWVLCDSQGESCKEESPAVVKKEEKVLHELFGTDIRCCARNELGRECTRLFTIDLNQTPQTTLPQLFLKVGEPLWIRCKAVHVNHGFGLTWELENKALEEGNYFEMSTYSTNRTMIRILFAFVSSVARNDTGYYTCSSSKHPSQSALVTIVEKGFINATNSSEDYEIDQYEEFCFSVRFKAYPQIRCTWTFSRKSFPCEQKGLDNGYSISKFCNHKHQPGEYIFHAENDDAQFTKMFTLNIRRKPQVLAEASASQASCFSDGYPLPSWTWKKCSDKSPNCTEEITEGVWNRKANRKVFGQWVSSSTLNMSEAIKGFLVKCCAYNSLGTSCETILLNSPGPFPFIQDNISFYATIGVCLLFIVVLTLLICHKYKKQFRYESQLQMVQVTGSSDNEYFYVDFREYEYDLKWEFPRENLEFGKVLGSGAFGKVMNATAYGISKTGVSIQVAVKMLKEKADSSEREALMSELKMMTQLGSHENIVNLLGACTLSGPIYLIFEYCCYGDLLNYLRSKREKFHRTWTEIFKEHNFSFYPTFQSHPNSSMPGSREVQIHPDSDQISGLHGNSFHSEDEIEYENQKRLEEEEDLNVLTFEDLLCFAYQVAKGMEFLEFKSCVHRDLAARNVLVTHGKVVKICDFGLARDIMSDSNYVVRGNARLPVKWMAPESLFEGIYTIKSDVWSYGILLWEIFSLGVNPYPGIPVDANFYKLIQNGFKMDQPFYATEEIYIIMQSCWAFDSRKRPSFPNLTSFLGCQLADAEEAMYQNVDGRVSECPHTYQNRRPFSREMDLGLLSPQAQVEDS
The experiment in a line: ADP Glo kinase assay, FLT3(ITD). Type of assay: biochemical. The conditions noted are these: apparent Ki calculated from Km (ATP) and IC50, read-out: FLT3 inhibition Ki.

For assay [6], the target named is T3, FLT3(D835Y) (Homo sapiens, UniProt P36888, D835Y).
T3 sequence (P36888 27-993 D835Y): T1 sequence (P36888 27-993) with D809Y
The experiment in a line: ADP Glo kinase assay, FLT3(D835Y). The conditions noted are these: apparent Ki calculated from Km (ATP) and IC50, read-out: FLT3 inhibition Ki. Type of assay: biochemical.

Assay [7] deals with MV-4-11. The experiment in a line: Proliferation assay (resazurin/MTT), MV-4-11. Type of assay: cell-based. The following applies: Homo sapiens, MV4-11, read-out: 72 h Growth inhibition GI50, MV-4-11 cells.
Assay [8] relates to U937. The experiment in a line: Proliferation assay (resazurin/MTT), U937. The conditions noted are these: Homo sapiens, U-937, read-out: 72 h Growth inhibition GI50, U937 cells. Type of assay: cell-based.
For assay [9], the target named is CDK7HMAT1 (Homo sapiens, UniProt P50613). The following applies: 10 µM.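 Further: kinase activity measured with an ADP-Glo luminescent kinase assay.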
Chain of CDK7HMAT1 (P50613 whole entry): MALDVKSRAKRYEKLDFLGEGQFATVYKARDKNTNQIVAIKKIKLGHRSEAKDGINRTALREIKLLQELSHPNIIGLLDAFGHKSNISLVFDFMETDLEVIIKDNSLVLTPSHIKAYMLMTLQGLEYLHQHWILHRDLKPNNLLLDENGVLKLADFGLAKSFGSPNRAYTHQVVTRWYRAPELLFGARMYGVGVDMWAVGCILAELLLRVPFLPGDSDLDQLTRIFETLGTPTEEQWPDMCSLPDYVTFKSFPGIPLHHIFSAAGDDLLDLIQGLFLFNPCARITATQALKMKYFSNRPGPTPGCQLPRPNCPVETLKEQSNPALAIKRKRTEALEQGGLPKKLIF
Chain of CDK7HMAT1 (P51946 whole entry partner): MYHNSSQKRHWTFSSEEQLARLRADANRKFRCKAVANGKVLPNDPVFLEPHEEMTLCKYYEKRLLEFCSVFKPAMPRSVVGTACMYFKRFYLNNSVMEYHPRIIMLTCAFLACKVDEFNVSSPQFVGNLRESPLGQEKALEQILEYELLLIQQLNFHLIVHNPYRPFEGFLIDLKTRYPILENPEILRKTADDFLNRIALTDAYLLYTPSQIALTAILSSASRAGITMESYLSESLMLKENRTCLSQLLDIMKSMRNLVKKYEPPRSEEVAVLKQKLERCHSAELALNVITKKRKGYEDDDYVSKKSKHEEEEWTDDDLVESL
Chain of CDK7HMAT1 (P51948 whole entry partner): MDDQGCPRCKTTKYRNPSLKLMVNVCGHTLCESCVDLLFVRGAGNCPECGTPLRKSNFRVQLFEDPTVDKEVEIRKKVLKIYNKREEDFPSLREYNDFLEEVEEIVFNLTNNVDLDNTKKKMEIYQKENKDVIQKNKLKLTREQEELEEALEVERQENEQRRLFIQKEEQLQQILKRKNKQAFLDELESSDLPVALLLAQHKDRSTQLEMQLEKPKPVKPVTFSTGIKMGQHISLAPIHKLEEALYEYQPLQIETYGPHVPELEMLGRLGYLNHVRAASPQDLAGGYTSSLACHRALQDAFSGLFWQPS
Assay [10] addresses T4, CDK1B (Homo sapiens, UniProt P06493). As to the kind of experiment: biochemical.
Assay [11] deals with CDK2E1 (Homo sapiens, UniProt P24941). The experiment in a line: biochemical.
Assay [12] deals with T4, CDK1B. The conditions noted are these: 1 µM.
Setting [13] is: apparent Ki calculated from Km (ATP) and IC50, read-out: CDK inhibition Ki.
The mark [14] stands for this setting: compound at 1 μM (values marked *), read-out: residual enzymatic activity (%) at 1 μM*.

Chain of CDK9/CyclinT1 (P50750 whole entry, species assumed): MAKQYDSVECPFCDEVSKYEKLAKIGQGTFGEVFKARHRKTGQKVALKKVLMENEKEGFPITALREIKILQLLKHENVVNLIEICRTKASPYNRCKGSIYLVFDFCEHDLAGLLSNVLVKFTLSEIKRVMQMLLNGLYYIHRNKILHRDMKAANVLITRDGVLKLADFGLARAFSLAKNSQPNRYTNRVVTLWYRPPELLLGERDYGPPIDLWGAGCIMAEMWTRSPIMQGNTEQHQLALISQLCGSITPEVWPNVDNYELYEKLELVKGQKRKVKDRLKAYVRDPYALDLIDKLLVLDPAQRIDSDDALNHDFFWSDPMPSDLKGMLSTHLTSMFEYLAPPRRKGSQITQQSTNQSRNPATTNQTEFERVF
Chain of CDK9/CyclinT1 (O60563 whole entry partner, species assumed): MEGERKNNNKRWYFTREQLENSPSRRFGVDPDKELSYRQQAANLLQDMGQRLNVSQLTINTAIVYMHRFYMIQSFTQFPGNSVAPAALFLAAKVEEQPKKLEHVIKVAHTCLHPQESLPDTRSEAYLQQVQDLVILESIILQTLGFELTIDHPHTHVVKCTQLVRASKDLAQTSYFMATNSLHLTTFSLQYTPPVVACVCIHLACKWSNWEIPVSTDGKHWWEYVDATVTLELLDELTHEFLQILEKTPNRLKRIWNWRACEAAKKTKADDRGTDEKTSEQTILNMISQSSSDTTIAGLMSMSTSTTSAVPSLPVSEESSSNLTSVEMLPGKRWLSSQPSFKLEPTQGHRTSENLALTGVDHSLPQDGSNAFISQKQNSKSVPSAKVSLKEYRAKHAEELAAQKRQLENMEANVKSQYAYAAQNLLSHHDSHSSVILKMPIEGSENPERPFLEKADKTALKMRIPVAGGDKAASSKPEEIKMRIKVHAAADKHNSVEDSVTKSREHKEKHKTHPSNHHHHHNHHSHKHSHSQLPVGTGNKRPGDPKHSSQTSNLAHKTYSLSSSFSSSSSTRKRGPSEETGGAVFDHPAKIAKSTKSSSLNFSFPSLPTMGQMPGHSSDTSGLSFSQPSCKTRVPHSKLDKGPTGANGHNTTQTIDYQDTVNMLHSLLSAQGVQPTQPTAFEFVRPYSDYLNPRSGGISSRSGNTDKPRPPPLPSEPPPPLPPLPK
T4 sequence (P06493 whole entry): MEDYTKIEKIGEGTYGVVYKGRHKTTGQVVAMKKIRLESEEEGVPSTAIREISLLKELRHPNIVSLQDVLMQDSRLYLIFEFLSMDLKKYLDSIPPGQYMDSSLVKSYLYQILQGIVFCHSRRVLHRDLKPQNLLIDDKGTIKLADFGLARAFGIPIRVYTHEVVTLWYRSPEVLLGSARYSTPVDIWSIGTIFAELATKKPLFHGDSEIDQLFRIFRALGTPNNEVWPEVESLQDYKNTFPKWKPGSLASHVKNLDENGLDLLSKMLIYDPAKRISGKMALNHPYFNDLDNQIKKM
T4 sequence (P14635 whole entry partner): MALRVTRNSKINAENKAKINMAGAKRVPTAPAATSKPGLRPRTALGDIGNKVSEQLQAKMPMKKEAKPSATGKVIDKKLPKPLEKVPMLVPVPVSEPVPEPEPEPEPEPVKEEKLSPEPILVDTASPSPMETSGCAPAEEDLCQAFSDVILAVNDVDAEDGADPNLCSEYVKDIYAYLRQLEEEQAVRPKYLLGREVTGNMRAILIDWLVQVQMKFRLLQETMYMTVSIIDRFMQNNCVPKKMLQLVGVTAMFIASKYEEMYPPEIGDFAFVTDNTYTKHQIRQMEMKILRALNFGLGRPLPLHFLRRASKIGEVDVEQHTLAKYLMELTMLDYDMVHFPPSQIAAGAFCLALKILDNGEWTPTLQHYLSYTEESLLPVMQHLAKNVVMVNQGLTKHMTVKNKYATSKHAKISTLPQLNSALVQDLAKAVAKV
Chain of CDK6/D3 (Q00534 whole entry, species assumed): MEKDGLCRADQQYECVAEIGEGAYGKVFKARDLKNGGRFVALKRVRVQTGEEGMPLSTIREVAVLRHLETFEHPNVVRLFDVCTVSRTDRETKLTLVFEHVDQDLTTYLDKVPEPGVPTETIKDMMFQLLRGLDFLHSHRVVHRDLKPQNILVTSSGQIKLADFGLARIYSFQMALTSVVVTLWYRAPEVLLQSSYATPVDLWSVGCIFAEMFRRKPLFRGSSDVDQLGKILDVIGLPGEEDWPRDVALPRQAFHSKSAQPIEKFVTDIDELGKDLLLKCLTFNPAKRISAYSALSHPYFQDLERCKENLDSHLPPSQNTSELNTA
Chain of CDK6/D3 (P30281 whole entry partner, species assumed): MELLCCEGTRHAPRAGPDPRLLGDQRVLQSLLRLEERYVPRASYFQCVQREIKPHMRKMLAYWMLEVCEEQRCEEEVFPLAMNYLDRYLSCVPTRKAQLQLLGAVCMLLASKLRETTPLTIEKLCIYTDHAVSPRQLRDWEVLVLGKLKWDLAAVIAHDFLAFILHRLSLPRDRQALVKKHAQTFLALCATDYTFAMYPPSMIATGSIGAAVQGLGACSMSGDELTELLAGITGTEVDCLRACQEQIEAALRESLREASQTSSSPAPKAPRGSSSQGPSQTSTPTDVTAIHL

By GI50 is commonly meant the concentration giving 50% growth inhibition. Regarding `c1ccc(Nc2nccc(-c3cnc4ccccn34)n2)nc1` [Cmpd 7, 4-(Imidazo[1,2-a]pyridin-3-yl)-N-(pyridin-2-yl)pyrimidin-2-amine], the Ki in assay [1] (setting [13]) was 218 nM; in assay [2] (setting [13]) it was 370 nM; in [3], 41 nM; in assay [5] it was 15 nM; in assay [6], 17 nM; in assay [10], 148 nM. This molecule also came in with a Ki in assay [11] of 84 nM. Besides, the remaining activity at 1 µM in assay [4] was determined as 34%. Moreover, the results for the GI50 in assay [7] and in assay [8] were 124 nM and 512 nM, respectively. The activity in assay [9] turned out to be 43%.

As for `CC(=O)N1CCN(c2ccc(Nc3ncc(F)c(-c4cnc5ccc(C)cn45)n3)nc2)CC1` [Cmpd 31, 1-(4-(6-((5-Fluoro-4-(6-methylimidazo[1,2-a]pyridin-3-yl)pyrimidin-2-yl)amino)pyridin-3-yl)piperazin-1-yl)ethan-1-one], the remaining activity at 1 µM in [1] (setting [14]) is 37%; in assay [2] (setting [14]), 38%. Moreover, the Ki in assay [3] was 308 nM; in assay [11] it was 301 nM. The GI50 in assay [7] is 5 nM; in assay [8], 19100 nM. Moreover, the activity in assay [12] amounted to 50%.

Regarding `CN1CCN(c2ccc(Nc3nccc(-c4cnc5ccc(-c6cn[nH]c6)cn45)n3)nc2)CC1` [Cmpd 67, 4-(6-(1H-Pyrazol-4-yl)imidazo[1,2-a]pyridin-3-yl)-N-(5-(4-methylpiperazin-1-yl)pyridin-2-yl)pyrimidin-2-amine], the Ki in assay [3] is 41 nM; in assay [5], 11 nM; in assay [11], 197 nM. Further, the results for the 50% growth inhibitory concentration (GI50) in assay [7] and in [8] were 17 nM and 18 nM, respectively.
